# Source: US20260232578A1, “COMPOSITIONS AND METHODS FOR TRANSMUCOSAL ABSORPTION” (Tonix Pharma Limited, priority 2012, published 2026)
# Legend:
# in vivo [1] = conditions: female, beagle, dog; for AUC(0-t) / AUC(0-inf): 1.79 mg; for AUC(0-t): AUC0-24 h; for AUC(0-inf): AUC0-∞h
# Protocol: The protocol was designed as outlined in Table 23.
# The method requires a lithium heparinized plasma sample volume of 200 μl. The extraction is a liquid liquid extraction with hexane, and the extracts are injected using an HPLC system and an […] (Applied Biosystems) for the MS/MS detection, with a “Onyx monolithic Phenomenex C18 100×3.0 mm” column.
# Concentrations of the samples are calculated using Watson® 7.2.0.03 directly from chromatograms after automatic integration by Analyst® 1.5.1 and expressed as ng/mL. Mean plasma concentrations will be calculated (when calculable, i.e. n>2) using individual concentrations and will be expressed with the corresponding standard deviation value and variation coefficients (when calculable, i.e. n>3) (with CV(%)=(SD/mean)×100). The individual plasma concentrations are tabulated for each dog and scheduled sampling time. Concentrations below the LLOQ are designated as “BLQ.” All BLQ concentrations are substituted by zero for calculation of the descriptive statistics of the concentrations.
# Pharmacokinetic analysis is carried out using […]® (Version 4.3 (Thermo Electron Corporation)). An independent model (non compartmental analysis) is used. All BLQ values in the absorption phase are substituted by zero, except for BLQ values between evaluable concentrations, which are treated as missing values, before the calculation of the pharmacokinetic variables. The terminal BLQ values are ignored. The following pharmacokinetic parameters are calculated:
# 5 non-naive female dogs are used, each dog receiving the test substance by oral administration via nasogastric tube to the stomach (NG) administration, sublingual administration (SL), and by intravenous (IV) administration. There is a “wash-out” period of at least two weeks between each type of administration. Blood samples are drawn as follows:
# A single NG dose of 0.14 mg/kg (under a volume of 5 ml/kg and a solution concentration of 0.028 mg/mL) is administered.
# After a wash-out period of at least 2 weeks, dogs are sedated using propofol (6.5 mg/kg IV). They will be then given a single sublingual dose of 0.14 mg/kg (under a volume of 0.056 mL/kg and a solution concentration of 2.5 mg/mL).
# After a wash-out period of at least 2 weeks, dogs are given a single IV dose of 0.14 mg/kg (under a volume of 1 mL/kg, bolus of approximately 30 sec, and a solution concentration of 0.14 mg/mL).
# Blood sampling was designed to minimize animal suffering and to ensure the quality of the biological samples, and was adapted from basic procedures commonly used in studies performed in dogs. Serial blood samples (1 tube of approximately 5 mL) are collected from a jugular vein using vacuum tubes containing lithium heparin. After sealing each tube, the blood samples are manually agitated and stored on ice until centrifugation (within 30 minutes of sampling). The samples are centrifuged at 1500 g, at 4° C., for 10 minutes. The entire resultant plasma obtained from each tube is immediately transferred to suitably labeled polypropylene tubes (3 aliquots of plasma of at least 500 μl each), which are stored upright at approximately −80° C. and protected from light until bioanalysis.
# The dogs are fasted overnight before each administration, and food is given to the dogs 4 hours after each treatment. […] In each of the three routes, a potassium phosphate buffer (pH 7.4) is used as the vehicle.
# As referred to in Example 4, a study was designed in order to assess the effects of the compositions and methods of the invention. […] The pharmacokinetic parameters were then calculated. A summary of the study design is as follows:
# Blood was collected in a fasted condition for all three routes of administration. […] Briefly, the method involved liquid-liquid extraction with hexane. The extracts were injected using an HPLC system and an API4000® (Applied Biosystems) for the MS/MS detection, with an “Onyx monolithic Phenomenex C18 100×3.0 mm” column.
# in vivo [2] = conditions: beagle, dog
# Protocol: Each dog was sampled at pre-dose before and after Propofol (when possible) and at 5, 10 and 20 minutes post-dose.
compound,measurement,setting,value
"CN(C)CCC=C1c2ccccc2C=Cc2ccccc21 [cyclobenzaprine, 3-(5H-dibenzo[a,d]cyclohepten-5-ylidene)-N,N-dimethyl-1-propanamine]","increase in bioavailability, sublingual vs PO",in vivo [1],~77 fold
same,AUC(0-t),in vivo [1],127 ± 37.1 ng·h/mL
same,AUC(0-inf),in vivo [1],129 ± 36.4 ng·h/mL
same,bioavailability,"in vivo [1]; bioavailability, conclusion",~100%
same,concentration at 0.5 h,"in vivo [1]; iv, 0.14 mg/kg, plasma level",52.3 ng/mL
same,concentration at 6 h,"in vivo [1]; iv, 0.14 mg/kg, plasma level",3.4 ng/mL
same,AUC(0-t),in vivo [1]; iv,43.5 ± 3.77 ng·h/mL
same,AUC(0-inf),in vivo [1]; iv,44.9 ± 4.15 ng·h/mL
same,"bioavailability, sublingual vs IV calculated in the same condition",in vivo [2],about 200%
